From patent publication US11596692B1 (Incyte Corporation, priority 2018, dated 2023)

What follows are molecules tested on IRF3 (assay: IRF3 activation assay in THP-1 Dual cells). Conditions: Homo sapiens, THP-1, Table 4C; read-out: THP1 IRF3 EC50.
Type: cell-based
In short: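 THP-1 Dual cells (100,000/well) were treated with serially diluted compound for 24 h at 37° C, 5% CO2. IRF3 reporter activity in supernatant was read with QUANTI-Blue as absorbance at 620-655 nm after 2 h, with untreated cells as negative control. EC50 came from fitting percent control activity against log concentration.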

| SMILES | EC50 [nM] |
| --- | --- |
| CCn1nc(C)cc1C(=O)Nc1nc2cc(C(N)=O)cc(OCCN3CCOCC3)c2n1C/C=C/Cn1c2nc(-c3cc(C)nn3CC)ncc2c2cc(C(N)=O)cc(OCCCOC)c21 [Example S43, (E)-9-(4-(5-carbamoyl-2-(1-ethyl-3-methyl-1H-pyrazole-5-carboxamido)-7-(2-morpholinoethoxy)-1H-benzo[d]imidazol-1-yl)but-2-en-1-yl)-2-(1-ethyl-3-methyl-1H-pyrazol-5-yl)-8-(3-methoxypropoxy)-9H-pyrimido[4,5-b]indole-6-carboxamide] | 50 to 200 |
| CCn1nc(C)cc1C(=O)Nc1nc2cc(C(N)=O)cc(OCCCNC(=O)OCCC(=O)O)c2n1C/C=C/Cn1c2nc(-c3cc(C)nn3CC)ncc2c2cc(C(N)=O)cc(OCCCOC)c21 [Example S44, (E)-3-(((3-((5-carbamoyl-1-(4-(6-carbamoyl-2-(1-ethyl-3-methyl-1H-pyrazol-5-yl)-8-(3-methoxypropoxy)-9H-pyrimido[4,5-b]indol-9-yl)but-2-en-1-yl)-2-(1-ethyl-3-methyl-1H-pyrazole-5-carboxamido)-1H-benzo[d]imidazol-7-yl)oxy)propyl)carbamoyl)oxy)propanoic acid] | ≤ 50 |
| CCn1nc(C)cc1C(=O)Nc1nc2cc(C(N)=O)cc(OCCCNC(=O)NCC(=O)O)c2n1C/C=C/Cn1c2nc(-c3cc(C)nn3CC)ncc2c2cc(C(N)=O)cc(OCCCOC)c21 [Example S46, (E)-((3-((5-carbamoyl-1-(4-(6-carbamoyl-2-(1-ethyl-3-methyl-1H-pyrazol-5-yl)-8-(3-methoxypropoxy)-9H-pyrimido[4,5-b]indol-9-yl)but-2-en-1-yl)-2-(1-ethyl-3-methyl-1H-pyrazole-5-carboxamido)-1H-benzo[d]imidazol-7-yl)oxy)propyl)carbamoyl)glycine] | ≤ 50 |
| CCn1nc(C)cc1C(=O)Nc1nc2cc(C(N)=O)cc(OCCCNC(=O)[C@@H](N)CC(=O)O)c2n1C/C=C/Cn1c2nc(-c3cc(C)nn3CC)ncc2c2cc(C(N)=O)cc(OCCCOC)c21 [Example S47, (S,E)-3-amino-4-((3-((5-carbamoyl-1-(4-(6-carbamoyl-2-(1-ethyl-3-methyl-1H-pyrazol-5-yl)-8-(3-methoxypropoxy)-9H-pyrimido[4,5-b]indol-9-yl)but-2-en-1-yl)-2-(1-ethyl-3-methyl-1H-pyrazole-5-carboxamido)-1H-benzo[d]imidazol-7-yl)oxy)propyl)amino)-4-oxobutanoic acid] | 50 to 200 |
| CCn1nc(C)cc1C(=O)Nc1nc2cc(C(N)=O)cc(OCCOCCOCCC(=O)O)c2n1C/C=C/Cn1c2nc(-c3cc(C)nn3CC)ncc2c2cc(C(N)=O)cc(OCCCOC)c21 [Example S49, (E)-3-(2-(2-((5-carbamoyl-1-(4-(6-carbamoyl-2-(1-ethyl-3-methyl-1H-pyrazol-5-yl)-8-(3-methoxypropoxy)-9H-pyrimido[4,5-b]indol-9-yl)but-2-en-1-yl)-2-(1-ethyl-3-methyl-1H-pyrazole-5-carboxamido)-1H-benzo[d]imidazol-7-yl)oxy)ethoxy)ethoxy)propanoic acid] | ≤ 50 |
| CCn1nc(C)cc1C(=O)Nc1nc2cc(C(N)=O)cc(OCCCNS(=O)(=O)CCCC(=O)O)c2n1C/C=C/Cn1c2nc(-c3cc(C)nn3CC)ncc2c2cc(C(N)=O)cc(OCCCOC)c21 [Example S50, (E)-4-(N-(3-((5-carbamoyl-1-(4-(6-carbamoyl-2-(1-ethyl-3-methyl-1H-pyrazol-5-yl)-8-(3-methoxypropoxy)-9H-pyrimido[4,5-b]indol-9-yl)but-2-en-1-yl)-2-(1-ethyl-3-methyl-1H-pyrazole-5-carboxamido)-1H-benzo[d]imidazol-7-yl)oxy)propyl)sulfamoyl)butanoic acid] | ≤ 50 |
